{"source": "patent US5705687A", "about": "“Neurotropic drug and method for preparation of same” (priority 1993, dated 1998)", "system": "mice", "experiment": "Hemic hypoxia (sodium nitrite), lifespan", "assay_type": "in vivo", "conditions": "for Lifespan, % effect: Na-nitrite alone = 100", "protocol": "The antihypoxic properties of the new compounds were tested in the models of hypoxic normobaric, hemic and histotoxic hypoxia. The hypoxic (hypercapnic) normobaric hypoxia was induced by placing the mice in hermetically sealed transparent boxes, subdivided into compartments, 80 cm^3 each. The animals were observed until all respiratory movements ceased. The hemic hypoxia was induced by the intraperitoneal administration of sodium nitrite in a dose of 400 mg/kg. The hystotoxic hypoxia was induced by the intraperitoneal administration of sodium nitroprussiate, in a dose of a 20 mg/kg dosage.", "note": "Structures can show the parent of a compound that is named as a salt."}
{"smiles": "CC(C)(CO)C(=O)C(=O)NCCCC(=O)O", "note": "[KPA-Ca, calcium salt of ketopantoyl aminobutyrate]", "values": [{"measurement": "Average lifespan", "setting": "10 mg/kg + Na-nitrite 400 mg/kg", "result": "777 ± 30.1", "unit": "s"}, {"measurement": "Lifespan, % effect", "setting": "10 mg/kg", "result": 98.3, "unit": "%"}, {"measurement": "Average lifespan", "setting": "25 mg/kg + Na-nitrite 400 mg/kg", "result": "780 ± 30.3", "unit": "s"}, {"measurement": "Lifespan, % effect", "setting": "25 mg/kg", "result": 98.7, "unit": "%"}, {"measurement": "Average lifespan", "setting": "50 mg/kg + Na-nitrite 400 mg/kg", "result": "819 ± 41", "unit": "s"}, {"measurement": "Lifespan, % effect", "setting": "50 mg/kg", "result": 103.6, "unit": "%"}, {"measurement": "increase in effect (lifespan)", "setting": "100 mg/kg", "result": 19.9, "unit": "%"}, {"measurement": "Average lifespan", "setting": "100 mg/kg + Na-nitrite 400 mg/kg, P < 0.01", "result": "948 ± 40.3", "unit": "s"}, {"measurement": "Lifespan, % effect", "setting": "100 mg/kg", "result": 119.9, "unit": "%"}, {"measurement": "activity in hemic hypoxia (in words)", "setting": "10 to 100 mg/kg", "result": "little activity"}]}
